Laboratory results taken from patent publication US7022687B1, “Combination of loteprednol and antihistamines” (Asta Medica AG, priority 1999, dated 2006).

How the values were obtained:
[1] = cited from earlier work
[2] = tested on: TNFα release; assay: LPS-induced TNFα release in diluted human blood (ELISA); type: cell-based
Protocol: In vitro, investigations on the influencing of the release of the proinflammatory cytokine TNFα in human blood of various donors diluted 1:5 were carried out. The stimulation was effected using lipopolysaccharide (LPS) from Salmonella abortus equi (10 μg/ml) over the course of 24 h at 37° C. and 5% CO2 in an incubator. The TNFα release was determined using an ELISA, based on antibodies from Pharmingen.

[3] = tested on: young domestic pigs actively sensitized with an antigen (extract from Ascaris suum); assay: Allergen-induced nasal secretion (rhinorrhea) in Ascaris-sensitized young domestic pigs; type: in vivo; conditions: for Inhibition of nasal secretion: intranasal Ascaris allergen challenge, pigs
Protocol: In vivo investigations were carried out on young domestic pigs actively sensitized with an antigen (extract from Ascaris suum). Three weeks later, they were exposed to allergen challenge, which was carried out by intranasal instillation of the Ascaris extract. This local intranasal allergen challenge leads to a very great increase in the nasal secretion (rhinorrhea). The amount of secretion was determined gravimetrically.

Question: For `CCOC(=O)O[C@]1(C(=O)OCCl)CC[C@H]2[C@@H]3CCC4=CC(=O)C=C[C@]4(C)[C@H]3[C@@H](O)C[C@@]21C` [Loteprednol etabonate], which Water solubility [1] is on record?
Answer: The Water solubility was “virtually water-insoluble”.

Question: Which inhibition at 0.001 µM ([2]; loteprednol 0.001 μmol/l, human blood diluted 1:5, LPS 10 μg/ml, 24 h) does the source give for `CCOC(=O)O[C@]1(C(=O)OCCl)CC[C@H]2[C@@H]3CCC4=CC(=O)C=C[C@]4(C)[C@H]3[C@@H](O)C[C@@]21C` [Loteprednol] here?
Answer: Its inhibition at 0.001 µM is 1%.

Question: And the inhibition at 0.01 µM ([2]; loteprednol 0.01 μmol/l, human blood diluted 1:5, LPS 10 μg/ml, 24 h)?
Answer: The inhibition at 0.01 µM was 2%.

Question: And the inhibition at 0.03 µM ([2]; loteprednol 0.03 μmol/l, human blood diluted 1:5, LPS 10 μg/ml, 24 h)?
Answer: Its inhibition at 0.03 µM is 8%.

Question: What about the “Inhibition of nasal secretion” value ([3]; loteprednol 20 μg/nostril) of the same molecule?
Answer: Its value is 8%.

Question: Which “LPS-induced TNFα release (in words)” value ([2]; administered alone) does the source give for `CN1CCCC(n2nc(Cc3ccc(Cl)cc3)c3ccccc3c2=O)CC1` (stereo not drawn) [Azelastine] here?
Answer: The value was “remains virtually unchanged”.

Question: And the inhibition at 10 µM ([2]; azelastine 10 μmol/l, human blood diluted 1:5, LPS 10 μg/ml, 24 h)?
Answer: The inhibition at 10 µM was 2%.

Question: What about the “Inhibition of nasal secretion” value ([3]; azelastine 10 μg/nostril) of the same molecule?
Answer: Its value is 15%.

Question: What about the “Inhibition of the allergically induced nasal hypersecretion (in words)” value ([3]; used alone at 10 or 20 μg/nostril) of the same molecule?
Answer: Its value is “only marginal inhibition”.
